From US20160150766A1, “ADVANCING GENETIC GAIN IN BOVINE” (priority 2013, published 2016) come the findings set out here.

The subject of the experiment is prepubescent calves. As to the kind of experiment: Laparoscopic oocyte retrieval from superstimulated prepubescent calves. The format is in vivo, bovine. To be noted: calves 3.5-6 months of age, superstimulated: progesterone CIDR, FSH s.c. at 12-hour intervals (20/15/10 mg/dose), 50 mg LH i.v.; aspiration 23 hours after LH. Here is the method:
Laparoscopic oocyte retrieval in prepubescent calves younger than six months of age provides an avenue of shortening the generation interval, thus increasing the rate of genetic gain. […] Three laparoscopic oocyte retrievals were performed on each calf, and the oocytes collected were fertilized in vitro and cultured to the blastocyst stage of development. Resulting embryos were transferred fresh into synchronized recipients, and pregnancies were carried out to Day 60. On average, nine oocytes were retrieved per aspiration when the calves were superstimulated. An average of six oocytes were retrieved from calves that had no FSH treatment.
Calves 3.5-6 months of age were used as egg donors. Initially a progesterone releasing device designed for sheep (Eazi Breed CIDR, Zoetis, USA) containing 0.3 g progesterone was inserted into the vagina of each calf and remained there for 12 days. The device was then removed for six days. A new CIDR was inserted and left for 12 days.
Superstimulation started nine days after insertion of the CIDR with the injection of […] follicle stimulating hormone (FSH) s.c. at 12-hour intervals, starting with two doses of 20 mg/dose, then two doses of 15 mg/dose, and finally two doses of 10 mg by the last injections. The CIDR was removed at the time of the final FSH injection and 50 mg of LH administered i.v. 2.5 days after removal of the CIDR. […]

For follicle stimulating hormone [FSH], the “oocytes retrieved per aspiration (average)” value is recorded as “nine”.
